The values that follow come from US7138418B2, “Pentafluorobenzenesulfonamides and analogs” (Amgen, Inc., priority 1996, dated 2006).

SMILES strings stand for the structures.

Test system in the first data set: not given
Experiment: not given
Details: not given
For orientation: melting point means the temperature, or range, at which the solid turns liquid. As to `COc1ccc(NS(=O)(=O)c2c(F)c(F)c(F)c(F)c2F)cc1` [Example 8, 4-Methoxy-1-pentafluorophenylsulfonamidobenzene], the melting point is 102 to 103 °C.

As to `O=S(=O)(Nc1ccc(Cl)nc1)c1c(F)c(F)c(F)c(F)c1F` [Example 36, 2-Chloro-5-pentafluorophenylsulfonamidopyridine], the melting point lay within 144 to 145 °C.

For `COc1ccc(N(CCCCCO)S(=O)(=O)c2c(F)c(F)c(F)c(F)c2F)cc1O` [Example 37, 2-Hydroxy-1-methoxy-4-(N-(5-hydroxypentyl)-pentafluorophenylsulfonamido)benzene], the melting point came to 118 °C.

Compound `COc1cc(Br)c(NS(=O)(=O)c2c(F)c(F)c(F)c(F)c2F)cc1F` [Example 41, 1-Bromo-4-fluoro-5-methoxy-2-pentafluorophenylsulfonamidobenzene] displayed a melting point of 109 °C.

Compound `COc1ccc(NS(=O)(=O)c2c(F)c(F)c(F)c(F)c2F)cc1C(F)(F)F` [Example 49, 4-Methoxy-1-pentafluorophenylsulfonamido-3-trifluoromethylbenzene] yielded a melting point of 121 to 123 °C.

With `C=CCN(c1ccc(OC)cc1)S(=O)(=O)c1c(F)c(F)c(F)c(F)c1F` [Example 50, 4-Methoxy-1-(N-(2-propenyl)pentafluorophenylsulfonamido)benzene], the melting point is 59 to 60 °C.

For the compound `C=CCCN(c1ccc(OC)cc1)S(=O)(=O)c1c(F)c(F)c(F)c(F)c1F` [Example 51, 1-(N-(3-Butenyl)pentafluorophenylsulfonamido)-4-methoxybenzene], the melting point lay within 64 to 66 °C.

As to `COc1ccc(N(CC(O)CO)S(=O)(=O)c2c(F)c(F)c(F)c(F)c2F)cc1` (centres unmarked) [Example 53, 1-(N-(2,3-Dihydroxypropyl)pentafluorophenylsulfonamido)-4-methoxybenzene], the melting point was 130 to 131 °C.

Regarding `COc1ccc(N(CCC(O)CO)S(=O)(=O)c2c(F)c(F)c(F)c(F)c2F)cc1` (centres unmarked) [Example 54, 1-(N-(3,4-Dihydroxybutyl)pentafluorophenylsulfonamido)-4-methoxybenzene], the melting point is 126 to 128 °C.

With `COc1ccc(N(CCCC(O)CO)S(=O)(=O)c2c(F)c(F)c(F)c(F)c2F)cc1` (centres unmarked) [Example 55, 1-(N-(4,5-Dihydroxypentyl)pentafluorophenylsulfonamido)-4-methoxybenzene], the melting point was in the range of 116 to 118 °C.

Compound `COc1ccc(N(CCCCO)S(=O)(=O)c2c(F)c(F)c(F)c(F)c2F)cc1` [Example 56, 1-(N-(4-hydroxybutyl)pentafluorophenylsulfonamido)-4-methoxybenzene] showed a melting point of 88 to 90 °C.

`COc1ccc(N(CCCCCO)S(=O)(=O)c2c(F)c(F)c(F)c(F)c2F)cc1` [Example 57, 4-Methoxy-1-(N-(5-hydroxypentyl)pentafluorophenylsulfonamido)benzene] registered a melting point of 96 to 97 °C.

Compound `COc1ccc(NS(=O)(=O)c2c(F)c(F)c(F)c(F)c2F)cc1[N+](=O)[O-]` [Example 58, 4-Methoxy-3-nitro-1-pentafluorophenylsulfonamidobenzene] registered a melting point of 95 to 97 °C.

Regarding `COc1ccc(NS(=O)(=O)c2c(F)c(F)c(F)c(F)c2F)cc1N` [Example 59, 3-Amino-4-methoxy-1-pentafluorophenylsulfonamidobenzene], the melting point was in the range of 142 to 143 °C.

A further data set has as its system LDL receptor expression in Hep G2 cells. The data set can be described thus: LDL receptor expression in Hep G2 cells by western-blot analysis. The class given is cell-based. As to conditions: Homo sapiens, HepG2, minimum concentration at which a maximal induction of LDL receptor was observed. The protocol:
Compounds may be evaluated in vitro for their ability to increase LDL receptor expression using western-blot analysis, for example, as described in Tam et al. (1991) J. Biol. Chem. 266, 16764. Established animal models to evaluate hypocholesterolemic effects of compounds are known in the art. […] 81, 300; Evans et al. (1994) J. Lipid Res. 35, 1634; Lin et al (1995) J. Med. Chem. 38, 277.
Compounds were evaluated for their ability to increase LDL receptor expression in Hep G2 cells using western-blot analysis as described in Tam et al., J. Biol. Chem., 266, 16764 (1991).
Consider `CN(C)c1ccc(NS(=O)(=O)c2c(F)c(F)c(F)c(F)c2F)cc1` [Example 1, 4-(N,N-Dimethylamino)-1-pentafluorophenylsulfonamidobenzene], for which the EC (max) stood at 0.5 µM.

The compound `CN(C)c1cccc(NS(=O)(=O)c2c(F)c(F)c(F)c(F)c2F)c1` [Example 2, 3-(N,N-Dimethylamino)-1-pentafluorophenylsulfonamidobenzene] gave an EC (max) of 5 µM.

In the case of `O=S(=O)(Nc1ccc2c(c1)OCCO2)c1c(F)c(F)c(F)c(F)c1F` [Example 3, 1,2-Ethylenedioxy-4-pentafluorophenylsulfonamidobenzene], the EC (max) is 5 µM.

Turning to `O=S(=O)(Nc1ccc2c(c1)OCO2)c1c(F)c(F)c(F)c(F)c1F` [Example 4, 1,2-Methylenedioxy-4-pentafluorophenylsulfonamidobenzene], the EC (max) was at most 5 µM.

For the compound `COc1ccc(NS(=O)(=O)c2c(F)c(F)c(F)c(F)c2F)cc1O` [Example 6, 2-Hydroxy-1-methoxy-4-pentafluorophenylsulfonamidobenzene], the EC (max) came out at 0.15 µM.

In turn, `COc1ccc(NS(=O)(=O)c2c(F)c(F)c(F)c(F)c2F)cc1` [Example 8, 4-Methoxy-1-pentafluorophenylsulfonamidobenzene] had an EC (max) of 0.5 µM.

Compound `O=S(=O)(Nc1cccc(O)c1)c1c(F)c(F)c(F)c(F)c1F` [Example 9, 3-Hydroxy-1-pentafluorophenylsulfonamidobenzene] had an EC (max) of 5 µM.

For the compound `CCN(CC)c1ccc(NS(=O)(=O)c2c(F)c(F)c(F)c(F)c2F)cc1` [Example 12, 4-(N,N-Diethylamino)-1-pentafluorophenylsulfonamidobenzene], the EC (max) worked out at 5 µM.

`O=S(=O)(Nc1ccc2[nH]ncc2c1)c1c(F)c(F)c(F)c(F)c1F` [Example 15, 5-Pentafluorophenylsulfonamidoindazole]: the EC (max) came to 15 µM.

On to `CN(C)c1ccc(N(C)S(=O)(=O)c2c(F)c(F)c(F)c(F)c2F)cc1` [Example 17, 4-(N,N-Dimethylamino)-1-(N-methylpentafluorophenylsulfonamido)benzene], for which the EC (max) came to 5 µM.

Regarding `COc1cccc(NS(=O)(=O)c2c(F)c(F)c(F)c(F)c2F)c1` [Example 24, 3-Methoxy-1-pentafluorophenylsulfonamidobenzene], the EC (max) was found to be 15 µM.

`O=S(=O)(Nc1ccc(N2CCOCC2)cc1)c1c(F)c(F)c(F)c(F)c1F` [Example 25, 4-(1-Morpholino)-1-pentafluorophenylsulfonamidobenzene] had an EC (max) of 15 µM.

Compound `COc1ccc(N(C)S(=O)(=O)c2c(F)c(F)c(F)c(F)c2F)cc1F` [Example 30, 2-Fluoro-1-methoxy-4-(N-methylpentafluorophenylsulfonamido)benzene] showed an EC (max) of 15 µM.

`COc1ccc(NS(=O)(=O)c2c(F)c(F)c(F)c(F)c2F)cc1Br` [Example 31, 2-Bromo-1-methoxy-4-pentafluorophenylsulfonamidobenzene] gave an EC (max) of at most 5 µM.

In turn, `COc1ccc(NS(=O)(=O)c2c(F)c(F)c(F)c(F)c2F)cc1Cl` [Example 32, 2-Chloro-1-methoxy-4-pentafluorophenylsulfonamidobenzene] yielded an EC (max) of 1.5 µM.
